In the supplement of paper PMC10307832 one finds relative viability data, which are given here for six cell lines.

Assay in all cases: relative viability (nuclei count vs DMSO), 5 days (fraction); higher = more cells survive
Compound in assay [1]: O=C(/C=C/c1ccccc1)NC(NC(=S)Nc1cccc2cccnc12)C(Cl)(Cl)Cl [Salubrinal] + CS(=O)(=O)N1CCN(Cc2cc3nc(-c4cccc5[nH]ncc45)nc(N4CCOCC4)c3s2)CC1 [Pictilisib] (partner 1 µM)
The method in brief:
(§1)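 Medians of duplicate plates are given as relative viability. That measure is the nuclei count in treated wells divided by the count in vehicle wells. Counts were taken on 4× images of lung cancer cell lines in 1536-well plates, 5 days after pin-tool dosing the day after seeding with one drug alone or a fixed anchor-drug dose plus five library-drug doses (not always all listed) in √10 steps.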

Compound in assay [2]: Cc1ccc2nc(NCCN)c3ncc(C)n3c2c1 + N=C(N)NC(=N)NCCc1ccccc1 [Phenformin] (partner 250 µM)
The method in brief: as §1

Compound in assay [3]: O=C(/C=C/c1ccccc1)NC(NC(=S)Nc1cccc2cccnc12)C(Cl)(Cl)Cl [Salubrinal] + CC(=O)Nc1cccc(-n2c(=O)n(C3CC3)c(=O)c3c(Nc4ccc(I)cc4F)n(C)c(=O)c(C)c32)c1 [Trametinib] (partner 0.02 µM)
A digest of the protocol:
as §1

Compound in assay [4]: O=C(/C=C/c1ccccc1)NC(NC(=S)Nc1cccc2cccnc12)C(Cl)(Cl)Cl [Salubrinal] + O=C(CCCCCCC(=O)Nc1ccccc1)NO [Vorinostat] (partner 1 µM)
The method in brief:
as §1

NCI-H1703: the relative viability in assay [1] (first compound 0.08 µM) came to 0.216; in assay [1] (first compound 0.253 µM), 0.246; in assay [1] (first compound 0.8 µM) it was 0.238; in assay [1] (first compound 2.53 µM), 0.259; in assay [1] (first compound 8 µM) it was 0.264.
Take NCI-H1437: the relative viability stood at 0.289 in assay [2] (first compound 0.04 µM); 0.298 in assay [2] (first compound 0.1265 µM); 0.327 in assay [2] (first compound 0.4 µM); 0.298 in assay [2] (first compound 1.265 µM); 0.278 in assay [2] (first compound 4 µM); 0.563 in assay [3] (first compound 0.08 µM). The relative viability in assay [3] (first compound 0.253 µM) turned out to be 0.601; in assay [3] (first compound 0.8 µM) it was 0.52; in assay [3] (first compound 2.53 µM), 0.545; in assay [3] (first compound 8 µM) it was 0.494; in assay [1] (first compound 0.08 µM), 0.449; in assay [1] (first compound 0.253 µM), 0.484. Further, the relative viability in assay [1] (first compound 0.8 µM) worked out at 0.415; in assay [1] (first compound 2.53 µM) it was 0.417; in assay [1] (first compound 8 µM) it was 0.328; in assay [4] (first compound 0.08 µM), 0.841; in assay [4] (first compound 0.253 µM), 0.787; in assay [4] (first compound 0.8 µM), 0.812. Also, the relative viability in assay [4] (first compound 2.53 µM) is 0.814; in assay [4] (first compound 8 µM) it was 0.714.
For the cell line SK-LU-1, the relative viability in assay [2] (first compound 0.04 µM) is 0.649; in assay [2] (first compound 0.1265 µM), 0.568; in assay [2] (first compound 0.4 µM) it was 0.614; in assay [2] (first compound 1.265 µM), 0.553; in assay [2] (first compound 4 µM) it was 0.43; in assay [3] (first compound 0.08 µM), 0.463. Moreover, the relative viability stood at 0.468 in assay [3] (first compound 0.253 µM); 0.561 in assay [3] (first compound 0.8 µM); 0.445 in assay [3] (first compound 2.53 µM); 0.447 in assay [3] (first compound 8 µM); 0.678 in assay [1] (first compound 0.08 µM); 0.588 in assay [1] (first compound 0.253 µM). The relative viability in assay [1] (first compound 0.8 µM) was 0.698; in assay [1] (first compound 2.53 µM) it was 0.647; in assay [1] (first compound 8 µM), 0.519; in assay [4] (first compound 0.08 µM) it was 0.754; in assay [4] (first compound 0.253 µM), 0.668; in assay [4] (first compound 0.8 µM), 0.996. For the same cell line, the relative viability in assay [4] (first compound 2.53 µM) was determined as 0.779; in assay [4] (first compound 8 µM), 0.664.
With H3255, the relative viability turned out to be 0.396 in assay [2] (first compound 0.04 µM); 0.343 in assay [2] (first compound 0.1265 µM); 0.396 in assay [2] (first compound 0.4 µM); 0.355 in assay [2] (first compound 1.265 µM); 0.382 in assay [2] (first compound 4 µM); 0.744 in assay [3] (first compound 0.08 µM). The relative viability in assay [3] (first compound 0.253 µM) was determined as 0.55; in assay [3] (first compound 0.8 µM), 0.832; in assay [3] (first compound 2.53 µM), 0.582; in assay [3] (first compound 8 µM), 0.597; in assay [1] (first compound 0.08 µM) it was 0.561; in assay [1] (first compound 0.253 µM) it was 0.535. The relative viability is 0.576 in assay [1] (first compound 0.8 µM); 0.456 in assay [1] (first compound 2.53 µM); 0.487 in assay [1] (first compound 8 µM); 0.671 in assay [4] (first compound 0.08 µM); 0.81 in assay [4] (first compound 0.253 µM); 0.945 in assay [4] (first compound 0.8 µM). The relative viability worked out at 0.765 in assay [4] (first compound 2.53 µM) and 0.76 in assay [4] (first compound 8 µM).
Turning to Calu-6, the relative viability in assay [1] (first compound 0.08 µM) was 1.11; in assay [1] (first compound 0.253 µM) it was 0.817; in assay [1] (first compound 0.8 µM), 0.925; in assay [1] (first compound 2.53 µM) it was 0.871; in assay [1] (first compound 8 µM) it was 0.792.
As for NCI-H1792, the relative viability in assay [2] (first compound 0.04 µM) was 0.308; in assay [2] (first compound 0.1265 µM) it was 0.436; in assay [2] (first compound 1.265 µM) it was 0.411; in assay [2] (first compound 4 µM), 0.358; in assay [3] (first compound 0.08 µM), 0.533; in assay [3] (first compound 0.8 µM), 0.524. Moreover, the relative viability in assay [3] (first compound 2.53 µM) worked out at 0.374; in assay [3] (first compound 8 µM), 0.631; in assay [1] (first compound 0.08 µM), 0.324; in assay [1] (first compound 0.8 µM) it was 0.246; in assay [1] (first compound 2.53 µM), 0.287; in assay [1] (first compound 8 µM), 0.243.
